# Experimental data as given in ChEMBL document CHEMBL1862790, “Optimisation of fenarimol series for the treatment of Chagas disease”.
# Columns and labels:
# [1] = system: Trypanosoma cruzi; experiment: microbe, parasite or virus in culture; type: functional, organism-based, Tulahuen LacZ, Clone C4
# [2] = DNDI: Cytotoxicity against L-6 rat myoblasts from skeletal muscle cells; conditions: L6 rat skeletal muscle myoblast cells
# [3] = system: Trypanosoma cruzi; experiment: microbe, parasite or virus in culture; type: functional, Tulahuen LacZ, Clone C4
# [4] = Trypanosoma cruzi, Tulahuen LacZ, Clone C4
Compound,"IC50 [1, 4]",IC50 ([2]; IC50),"IC90 [3, 4]",IC90 [3],IC50 [2],IC50 [1]
Clc1ccc(C(NC2CCN(c3ccc(Cl)cn3)CC2)c2cccnc2)cc1 (configuration not stated),35 nM,66800 nM,76 nM,,,
CCC(=O)NC1CCN(C(c2cnccn2)c2ccc(F)cc2F)CC1 (configuration not stated),> 1000 nM,> 100000 nM,> 1000 nM,,,
Cc1cc(C(=O)N2CCC(NC(c3ccc(C(F)(F)F)cc3)c3cccnc3)CC2)[nH]n1 (configuration not stated),200 nM,> 100000 nM,640 nM,,,
O=C(NC1CCN(C(c2ccc(C(F)(F)F)cc2)c2cccnc2)CC1)c1ccccc1 (configuration not stated),8.5 nM,62600 nM,57.5 nM,,,
N#Cc1ccc(C(c2cccnc2)N2CCN(C(=O)C3CC3)CC2)cc1 (configuration not stated),281 nM,> 100000 nM,556 nM,,,
OC(c1ccc(C(F)(F)F)cc1)(c1cncc(Cl)c1)c1ccc(Cl)cc1F (configuration not stated),> 1000 nM,78600 nM,> 1000 nM,,,
FC(F)(F)c1ccc(C(NC2CCN(c3nccs3)CC2)c2cccnc2)cc1 (configuration not stated),5.5 nM,56400 nM,,420 nM,,
CON=C(c1ccc(C(F)(F)F)cc1)c1cnccn1,> 1000 nM,> 100000 nM,> 1000 nM,,,
O=C(NC1CCN(C(c2cncnc2)c2ccc(Cl)cc2F)CC1)c1cc(F)ccc1F (configuration not stated),22.5 nM,74100 nM,104 nM,,,
O=C(NC1CCN(C(c2cnccn2)c2ccc(F)cc2F)CC1)C1CC1 (configuration not stated),> 1000 nM,> 100000 nM,> 1000 nM,,,
Cc1cc(C(=O)NC2CCN(C(c3ccc(C#N)cc3)c3cccnc3)CC2)no1 (configuration not stated),50 nM,> 100000 nM,103 nM,,,
CC(C)(C)OC(=O)N1CC(CNC(c2ccc(C(F)(F)F)cc2)c2cccnc2)C1 (configuration not stated),122 nM,> 100000 nM,332 nM,,,
COc1ccc(N2CCC(NC(c3cccnc3)c3ccc(Cl)cc3F)CC2)cc1F (configuration not stated),7.3 nM,47900 nM,22 nM,,,
NC(=O)c1cccc(N2CCC(NC(c3cccnc3)c3ccc(Cl)cc3F)CC2)c1 (configuration not stated),71.5 nM,> 100000 nM,> 100 nM,,,
OC(c1ccc(Cl)cc1)(c1cccnc1)c1sccc1Cl (configuration not stated),28 nM,70100 nM,72 nM,,,
O=C(NC1CCN(C(c2cncnc2)c2ccc(Cl)cc2F)CC1)c1c(F)cccc1F (configuration not stated),15.5 nM,82300 nM,204 nM,,,
CCN1CCC(NC(c2ccc(C(F)(F)F)cc2)c2cnccn2)CC1 (configuration not stated),> 1000 nM,> 100000 nM,> 1000 nM,,,
CS(=O)(=O)NC1CCN(C(c2ccc(Cl)cc2)c2cncnc2)CC1 (configuration not stated),630 nM,> 100000 nM,> 1000 nM,,,
CC(C)(C)OC(=O)NC1CCN(C(c2ccc(C(F)(F)F)cc2)c2cccnc2)CC1 (configuration not stated),11 nM,48000 nM,38 nM,,,
Fc1ccc(N2CCC(NC(c3cccnc3)c3ccc(Cl)cc3F)CC2)cc1Cl (configuration not stated),28.5 nM,54500 nM,72 nM,,,
CC(C)Oc1ccc(C(O)(c2cccnc2)c2cccc(C(N)=O)c2)cc1 (configuration not stated),92 nM,69700 nM,330 nM,,,
O=C(NC1CCN(C(c2ccc(Cl)cc2)c2cncnc2)CC1)c1ccccc1 (configuration not stated),75 nM,90800 nM,790 nM,,,
Fc1cc(Cl)ccc1C(NC1CCN(Cc2ccc(Cl)cc2Cl)CC1)c1cccnc1 (configuration not stated),39 nM,43000 nM,92 nM,,,
NC(=O)c1ccc(C(O)(c2ccc(Cl)cc2)c2cccnc2)c(F)c1 (configuration not stated),660 nM,> 100000 nM,790 nM,,,

Compound,"IC50 [1, 4]",IC50 ([2]; IC50),"IC90 [3, 4]",IC90 [3],IC50 [2],IC50 [1]
Cc1ncsc1C(=O)N1CCC(NC(c2ccc(C(F)(F)F)cc2)c2cncs2)CC1 (configuration not stated),68.5 nM,> 100000 nM,240 nM,,,
O=C(Nc1ccccc1)NC1CCN(C(c2ccc(Cl)cc2)c2cncnc2)CC1 (configuration not stated),100 nM,54400 nM,> 1000 nM,,,
N#Cc1cc(N2CCC(NC(c3cccnc3)c3ccc(Cl)cc3F)CC2)ccc1F (configuration not stated),20.7 nM,38400 nM,47 nM,,,
CC(C)Oc1ccc(C(NC2CCN(S(C)(=O)=O)CC2)c2cccnc2)cc1 (configuration not stated),140 nM,> 100000 nM,380 nM,,,
CS(=O)(=O)N1CCN(C(c2ccc(C#N)cc2)c2cccnc2)CC1 (configuration not stated),365 nM,> 100000 nM,734 nM,,,
O=C(N1CCN(C(c2cccnc2)c2ccc(Cl)cc2F)CC1)C(F)(F)F (configuration not stated),320 nM,> 100000 nM,830 nM,,,
CC1=C(C(=O)Nc2ccccc2)SCCO1 [CARBOXIN],22400 nM,,57500 nM,,> 100000 nM,
N#Cc1ccc(C(c2cccnc2)N2CCC(NC(=O)Nc3ccccc3)CC2)cc1 (configuration not stated),29 nM,> 100000 nM,95 nM,,,
Clc1ccc(CN2CCC(NC(c3ccc(Cl)cc3)c3cccnc3)CC2)cc1 (configuration not stated),66 nM,20300 nM,98 nM,,,
N#Cc1ccc(C(c2cccnc2)N2CCC(NC(=O)c3ccc(C(F)(F)F)cc3F)CC2)cc1 (configuration not stated),345 nM,76800 nM,696 nM,,,
COc1nc(C)nc(NC(=O)NS(=O)(=O)c2ccccc2Cl)n1 [CHLORSULFURON],45000 nM,,100000 nM,,> 100000 nM,
O=C(c1ccc(C(F)(F)F)cc1)N1CCN(C(c2ccc(Cl)cc2)c2cncnc2)CC1 (configuration not stated),150 nM,54100 nM,320 nM,,,
N#Cc1ccc(C(c2cccnc2)N2CCC(NC(=O)c3ccno3)CC2)cc1 (configuration not stated),220 nM,> 100000 nM,671 nM,,,
OC(c1ccc(C(F)(F)F)cc1)(c1ccc(C(F)(F)F)cc1)c1cc2ccccc2[nH]1,3980 nM,11600 nM,7590 nM,,,
CCCCC(NCC1CCCCC1)c1cccnc1 (configuration not stated),450 nM,> 100000 nM,700 nM,,,
CCCCC(O)(c1ccc(Cl)cc1)c1cncnc1 (configuration not stated),500 nM,> 100000 nM,1890 nM,,,
OC(c1ccc(Cl)cc1)(c1cncnc1)c1ccc(Cl)cc1F (configuration not stated),52 nM,54100 nM,450 nM,,,
CCOC(=O)N1CCN(C(c2ccc(Cl)cc2)c2cccnc2)CC1 (configuration not stated),58 nM,83200 nM,120 nM,,,
O=C(c1ccc(F)c(C(O)(c2ccc(Cl)cc2)c2cccnc2)c1)N1CCOCC1 (configuration not stated),48 nM,> 100000 nM,190 nM,,,
CO/N=C(\c1ccc(Cl)cc1)c1cccnc1,> 1000 nM,> 100000 nM,> 1000 nM,,,
CSc1ccc(N2CCC(NC(c3ccc(Cl)cc3)c3cccnc3)CC2)cc1 (configuration not stated),7 nM,30200 nM,19 nM,,,
NC(=O)c1cccc(C(O)(c2cccnc2)c2ccc(Cl)cc2F)c1 (configuration not stated),24.5 nM,> 100000 nM,356 nM,,,
CC(C)(C)OC(=O)N1CCC(NC(c2cnccn2)c2ccc(F)cc2F)CC1 (configuration not stated),210 nM,> 100000 nM,710 nM,,,
Cc1cc(C(=O)N2CCC(NC(c3ccc(C(F)(F)F)cc3)c3cccnc3)CC2)n(C(C)(C)C)n1 (configuration not stated),47.5 nM,71700 nM,150 nM,,,

Compound,"IC50 [1, 4]",IC50 ([2]; IC50),"IC90 [3, 4]",IC90 [3],IC50 [2],IC50 [1]
CC(=O)C(C)N1CCC(NC(c2ccc(Cl)cc2)c2cccnc2)CC1 (configuration not stated),42.3 nM,87700 nM,76 nM,,,
CC(C)Oc1ccc(C(c2cccnc2)N2CCC(NC(=O)Nc3ccccc3)CC2)cc1 (configuration not stated),57 nM,74200 nM,110 nM,,,
N#Cc1cnc(N2CCC(NC(c3ccc(Cl)cc3)c3cccnc3)CC2)s1 (configuration not stated),17 nM,48600 nM,25 nM,,,
CS(=O)(=O)NC(c1ccc(C(F)(F)F)cc1)c1cnccn1 (configuration not stated),> 10000 nM,> 100000 nM,> 10000 nM,,,
CC(c1ccc(C(F)(F)F)cc1)N1CCC(NC(c2cccnc2)c2ccc(Cl)cc2F)CC1 (configuration not stated),75 nM,19500 nM,> 100 nM,,,
OC(c1ccc(Cl)cc1)(c1ncccn1)c1ccccc1Cl (configuration not stated),22900 nM,> 100000 nM,66000 nM,,,
Cc1ccc(C(O)(c2ccc(Cl)cc2)c2cncnc2)cn1 (configuration not stated),435 nM,> 100000 nM,> 1000 nM,,,
CC(C)Oc1ccc(C(NC2CCN(C(=O)OC(C)(C)C)CC2)c2cccnc2)cc1 (configuration not stated),6.2 nM,58800 nM,11 nM,,,
CC(C)Oc1ccc(C(O)(c2cccnc2)c2cccc(C(N)=O)c2)cc1F (configuration not stated),99 nM,> 100000 nM,270 nM,,,
OC(c1ccc(Cl)cc1)(c1ccc(Cl)cc1)c1cc(-c2ccccc2)on1,> 10000 nM,53600 nM,> 10000 nM,,,
Cn1cc(CN2CCC(NC(c3ccc(Cl)cc3)c3cccnc3)CC2)c(C(F)(F)F)n1 (configuration not stated),52 nM,51300 nM,85 nM,,,
FC(F)(F)c1ccc(C(c2cccnc2)N2CCC(Oc3cccc(Cl)c3)CC2)cc1 (configuration not stated),59 nM,61200 nM,> 100 nM,,,
CC(C)(C)CC(=O)NC1CCN(C(c2ccc(Cl)cc2)c2cccnc2)CC1 (configuration not stated),8.8 nM,> 100000 nM,65 nM,,,
OC(c1cncnc1)(c1ccccc1F)c1ccccc1Cl (configuration not stated),2640 nM,> 100000 nM,9370 nM,,,
OC(c1ccc(Cl)cc1)(c1cccnc1)c1ccc(Cl)cc1F (configuration not stated),14 nM,,31 nM,32 nM,> 100000 nM,19 nM
O=C(Nc1ccc(Cl)cc1)NC1CCN(C(c2ccc(Cl)cc2)c2cccnc2)CC1 (configuration not stated),6 nM,21000 nM,30 nM,,,
CC(C)CC(O)(c1ccc(Cl)cc1)c1cnccn1 (configuration not stated),139 nM,> 100000 nM,337 nM,,,
O=C(N1CCCCC1)N1CCN(C(c2ccc(Cl)cc2)c2cncnc2)CC1 (configuration not stated),220 nM,> 100000 nM,610 nM,,,
O=C(C1CC1)N1CCN(C(c2cncnc2)c2ccc(C(F)(F)F)cc2F)CC1 (configuration not stated),178 nM,> 100000 nM,332 nM,,,
FC(F)(F)c1ccc(N2CCC(NC(c3ccc(Cl)cc3)c3cccnc3)CC2)cc1 (configuration not stated),11 nM,53500 nM,27.5 nM,,,
COc1ccccc1N1CCN(C(c2cccnc2)c2ccc(Cl)cc2F)CC1 (configuration not stated),45 nM,59800 nM,100 nM,,,
CSc1ncc(C(O)(c2ccc(Cl)cc2)c2cccnc2)cn1 (configuration not stated),288 nM,> 100000 nM,600 nM,,,
